Test results from US12485263B2, “Device for delivering an antimicrobial composition into a medical device” (ICU Medical, Inc., priority 2018, dated 2025).

Tests used:
[1] = 60 kilogram person; cited from earlier work
[2] = tested on: Gram positive bacteria, Gram negative bacteria, and fungi; experiment: Kill of microbes by dissolved chlorhexidine / chlorhexidine acetate (stated, no test protocol)

CC(=O)O.CC(=O)O.NC(=N\CCCCCC/N=C(N)/N=C(\N)Nc1ccc(Cl)cc1)/N=C(\N)Nc1ccc(Cl)cc1 [chlorhexidine acetate]
dose considered safe for direct injection into bloodstream [1]: ≥ 500 µg | concentration that can quickly kill most microbes ([2]; Gram positive bacteria, Gram negative bacteria, and fungi): greater than 200 μg/mL | time to kill microbes ([2]; at concentration greater than 200 μg/mL, in many cases): under 1 minute
